Source: patent publication US20020198177A1, “Coenzyme Q and EPA” (priority 2001, published 2002)

How the values were obtained:
[1] = assay type: in vivo, human
Source text: (§1) It was therefore decided to give the patient 10 g/d of 96% pure ethyl eicosapentaenoate containing less than 1% docosahexaenoic acid and no detectable linoleic acid.
No certain cause of the abnormal rhythm was identified. One possibility may have been the high intake of EPA. EPA at very high doses might theoretically give rise to oxygenated metabolites which could disturb cardiac rhythm. EPA at low doses seems to be strongly anti-arrhythmic but it is known that many anti-arrhythmic drugs can have pro-arrhythmic actions at certain doses.
Ubiquinone may have favourable effects on cardiac rhythm (R B Singh et al, Cardiovascular Drugs and Therapy 1998; 12: 347-353). 120 mg/day was given to the patient taking high dose EPA. […] The ubiquinone was then stopped after ten days.

mantle cell lymphoma = test: Case study: high-dose ethyl eicosapentaenoate in a patient with mantle cell lymphoma; assay type: in vivo, human
Source text: The following example reports that cancer developed in an individual who had been taking ethyl-EPA at a regular dose of 1 g/d. This individual had also at times in the past three years taken 2 g/d EPA but still cancer developed. […] Doses of 3 g/d to 30 g/d, and preferably of 5 g/d or 20 g/d will therefore be useful in the treatment of cancer. The EPA may be provided in any assimilable form. However, the triglyceride form and the ethyl-ester form are relatively non-irritant to the gastrointestinal tract and are the preferred forms for delivering these large amounts by mouth although other forms could be used for the intravenous route of administration. The EPA for oral administration should be in the purest form possible, at least 70% pure, preferably 80-90% pure, and very preferably 95% or more pure. Docosahexaenoic acid and linoleic acid should each be present at less than 5% and preferably less than 1%. The EPA may be formulated in capsules, liquids or emulsions such as may be required to make it appropriate for either oral or intravenous administration.
A person who had been taking 1 g/d of ethyl eicosapentaenoate as a supplement for general health reasons developed a form of non-Hodgkin's lymphoma called a mantle cell lymphoma. This is characterised by an over-production of a cell cycle controlling factor known as cyclin D1. Cyclin D1 appears to force the cells to divide continually. […] However, high doses are required to achieve the necessary levels in the cancer tissue.
as §1

cyclin D1 = details: in vitro and in animal models of cancer; cited from earlier work
cancerous cells = details: cited from earlier work
[2] = ubiquinone 120 mg/day added to high dose EPA, second day

SMILES	heart rate and rhythm [1, 2]	heart rate at rest [1, 2] [min⁻¹]	cardiac rate and rhythm abnormality on continued treatment ([1]; ubiquinone plus high dose of EPA over a period of four months)	heart rate and rhythm on reintroducing ubiquinone ([1]; ubiquinone reintroduced, high dose EPA continued)	heart rate and rhythm after stopping ubiquinone ([1]; ubiquinone stopped after ten days, four days after stopping, high dose EPA continued)	effect on the patient's palpable tumours (mantle cell lymphoma; 10 g/d of 96% pure ethyl eicosapentaenoate, sixth day of treatment, person)	cancer size (mantle cell lymphoma; dose of EPA increased to 10 g/day, within a matter of days)	management of cancer at low dose (mantle cell lymphoma; doses of EPA of 2 g/day or less, cancer developed on 1 g/d, at times 2 g/d)	synthesis of cyclin D1 (cyclin D1)	growth of cancerous cells (cancerous cells)
COC1=C(OC)C(=O)C(C/C=C(\C)CC/C=C(\C)CC/C=C(\C)CC/C=C(\C)CC/C=C(\C)CC/C=C(\C)CC/C=C(\C)CC/C=C(\C)CC/C=C(\C)CCC=C(C)C)=C(C)C1=O [ubiquinone]	returned to normal	65 to 75	no return of the cardiac rate and rhythm abnormality	normal rate and rhythm came back	variability of rate and rhythm returned					
CC/C=C\C/C=C\C/C=C\C/C=C\C/C=C\CCCC(=O)OCC [ethyl eicosapentaenoate]						began to regress	reduced dramatically in size	likely to be ineffective	able to inhibit the synthesis of cyclin D1	could inhibit the growth of cancerous cells
